This is an account of results in patent publication US20210156844A1, “TMEM16A Modulation for Diagnostic or Therapeutic Use in Pulmonary Hypertension (PH)” (Bayer Aktiengesellschaft, priority 2017, published 2021).

Test [1] deals with U-46619 preconstricted isolated mouse PA. Description: Measurement of pulmonary artery tone ex vivo. How it is done:
Pulmonary artery rings were isolated from male C57BL/6J mice (20-25 weeks old, Charles River, Wilmington Mass., USA), as described by Jain et al. (Jain, P P, et al., Int. J. Nanomedicine (2014) 9, 3249-3261). Following stable contraction (approx. 30 minutes post-addition of U-46619, 30 nM), the arteries were subjected to cumulatively increasing concentrations (0.1 to 30 μM) of the TMEM6A blockers T16Ainh-A01 (Tocris) and benzbromarone (Sigma) in order to analyze the concentration-response relationships.

For test [2], the system named is human PASMC. The experiment in a line: PASMC proliferation in vitro, [3H]-thymidine incorporation. The test is classed as cell-based. The following applies: benzbromarone 30 μM; PDGF-BB 10 ng/ml; human donor PASMC. How it is done: Human PASMC were seeded on 96-well plates. Cells were serum-starved for 12 hours, then underwent a 30 min pre-treatment with benzbromarone (30 μM) or vehicle. After the pre-treatment, serum-free SMC Medium containing PDGF-BB (10 ng/ml, Sigma) and benzbromarone was applied. The proliferation was determined by [^3H]-thymidine incorporation (BIOTREND Chemikalien GmbH, Cologne, Germany) as an index of DNA synthesis, and detected with a scintillation counter (Wallac 1450 MicroBeta TriLux Liquid Scintillation Counter & Luminometer, PerkinElmer, Waltham Mass., USA). Each independent experiment was performed in five replicates using PASMC isolated from six different donor lungs.
In experiments using TMEM16A silencing, cells were first seeded on 6-well plates and transfected with TMEM16A siRNA or control non-silencing RNA as described above. Cells were re-seeded into 96-well plates 24 hours after transfection, starved for 12 hours, then the induction and measurement of proliferation was performed as detailed above.
In general terms: Uptake of a labelled nucleoside into DNA is a usual measure of proliferation.

The subject of test [3] is PASMC. The experiment in a line: Membrane potential (Em) measurement, current clamp, primary PASMC. The test is classed as cell-based, human. The following applies: BBR 30 μM, T16Ainh-A01 10 μM. As to the method:
PASMC were grown on glass coverslips and serum starved for 24-48 hours. The coverslips were perfused with a bath solution composed of (in mM) NaCl 141, KCl 4.7, HEPES 10, glucose 10, CaCl2 1.8, MgCl2 1.2, pH 7.4 (NaOH) at room temperature. Micropipettes were pulled of borosilicate glass capillaries (GC150F-10, Harvard Apparatus Ltd, Edenbridge, Kent, UK) with a P-2000 electrode puller (Sutter Instruments, Novato Ca, USA), and fire polished using a micro-forge (MF-830, Narishige, Tokyo, Japan) to give a final resistance of 3-5 MΩ when filled with the pipette solution (composition in mM: NaCl 10, KCl 125, K2ATP 5, HEPES 10, EGTA 5, MgCl2 4, pH set to 7.2 with KOH). Em was measured with a HEKA EPC10 patch clamp amplifier (Dr. Schulze GmbH, Lambrecht, Germany) in the current clamp mode as described by others (Mason, M J, et al., Biophys. J. (2005) 88, 739-750; Perkins, KL, J. Neurosci. Methods (2006) 154, 1-18).
The liquid junction potential was calculated with the Clampex 10.0 software (Molecular Devices, Sunnyvale Calif., USA) and an online correction was made for each recording. Both at baseline and during perfusion with 30 μM benzbromarone (BBR, Sigma, St Louis Mo., USA) or 10 μM T16Ainh-A01 (Tocris, Bristol, UK), only those recordings in which (1) the Em was constant for at least 3 minutes, and (2) the seal resistance was constantly high (>5 GΩ) were used for the analyses.
The HEK-293 cells were transfected overnight either with the CLCA1 gene containing or with the empty plasmid, using the Effectene transfection reagent kit (Qiagen) and DMEM F-12 complete medium. On the next day, the medium was changed to serum-free SMC Medium. The resulting conditioned media were collected 24 hours later and applied on the PASMC of healthy donors. After 24 hours of incubation, the Em of the PASMC was measured as described above. To confirm the presence of CLCA1 in the conditioned medium, 20 μL of conditioned medium as well as control medium (collected from cells transfected with the empty plasmide) were analyzed with western blot as described above, using a CLCA1 antibody (ab108851, Abcam).

Test [4] has as its system hypoxia-exposed mice. The experiment in a line: Acute hemodynamic effects of benzbromarone in hypoxia-exposed mice. The test is classed as in vivo, mouse. The following applies: single i.v. bolus of 300 μM. The text has this: The experimental protocol is depicted in FIG. 12A. Male C57BL/6J mice (Charles River) at the age of 10 weeks were either placed into a hypoxic chamber (FiO2=0.1, n=16) for 4 weeks, or kept at normoxic conditions (control group, FiO2=0.21, n=8). According to the reports of Fagan et al. (Fagan, K A, et al. Am. J. Physiol. Lung Cell. Mol. Physiol. (2004) 287, L656-664) and Tuscherer et al. (Tuchscherer, H A, et al., J. Biomech. (2007) 40, 993-1001), a significant increase in the right ventricular systolic pressure (RVSP) and PA muscularization can be observed already after 14 days of hypoxia exposure. Therefore, mice subjected to hypoxia were randomized into two groups at the end of the second week. […]
In mice, in vivo hemodynamics was performed under constant inhalation of 2% isoflurane/oxygen, using the closed chest technique through a small incision on the submandibular area. Body temperature was monitored and maintained at 37±1° C. A limb-lead ECG was recorded and the heart rate was kept constant to avoid changes in the sympathetic tone during the experiment. The right ventricle (RV) was catheterized via the right jugular vein using a 1.4 F Millar catheter (SPR-671, Millar, Houston Tex., USA) and right ventricular systolic pressure (RVSP) was measured continuously. […]

Take `CCc1oc2ccccc2c1C(=O)c1cc(Br)c(O)c(Br)c1` [benzbromarone, (2-Ethyl-3-benzofuranyl)-(3,5-dibrom-4-hydroxyphenyl)ketone]: the “vasorelaxation of preconstricted PA” value in test [1] (cumulatively increasing concentrations 0.1 to 30 μM, U-46619 30 nM) is on record as “dose-dependent vasorelaxation”. Further, in test [1] (ex vivo PA vasodilator response), the “potency compared with T16Ainh-A01” value is “more potent”. The “PDGF-BB induced PASMC proliferation” value in test [2] is “decrease”. The “reversal of the Em of IPAH-PASMC to the levels of PASMC isolated from healthy donors” value in test [3] (PASMC of IPAH patients) is “completely”. The “effect on Em of PASMC of donors” value in test [3] (PASMC of healthy donors) is given as “no effect”. The RVSP result in test [4] (mice exposed to 4 weeks of hypoxia) was “significant decrease”. Also, in test [4] (normoxia control mice), the “RVSP in the control animals” value is “without affecting”.
